Laboratory results as given in patent US8598203B2 (Teva Pharmaceutical Industries, Ltd., priority 2009, dated 2013).

Legend:
[1] = background statement; cited from earlier work
[2] = test system: subjects with moderate to severe Crohn's disease (CDAI score of 220-450); assay: Phase IIa clinical trial of oral laquinimod in active moderate to severe Crohn's disease; type: in vivo, human; details: for dependence on steroids: moderate to severe Crohn's disease; for C-Reactive Protein level / clinical remission / clinical response / disease progression and/or disease complication / fecal calprotein level / number of open draining fistulas / symptoms of Crohn's disease: moderate to severe Crohn's disease (CDAI 220-450)
Protocol: Overall up to ˜180 Crohn's disease patients are enrolled. […] The capsules were prepared using a blend proportional to the 0.6 mg capsules described in PCT International Application No. PCT/US2007/013721 (WO 2007/146248). The capsules were prepared according to the method described in PCT International Application No. PCT/US2007/013721 (WO 2007/146248), which is hereby incorporated by reference into this application. A loading dose regimen of double the maintenance/intended dose is given during the first two days of study drug treatment. Thereafter, starting on day 3, the daily maintenance/intended dose is administered. Subjects are required to maintain CDAI diary cards for each day of the screening period and, if randomized, on each day of the treatment and follow-up period. The scores obtained from the seven consecutive diaries completed prior to the baseline visit and to each of weeks 1, 2, 4, 6, 8 and 12 contribute to a total CDAI score at each of the time points. Moderate to severe Crohn's disease (CD) subjects as determined by a Crohn's Disease Activity Index (CDAI) score of 220-450 (inclusive). […] Each dose is studied sequentially in a distinct cohort. Scheduled in-clinic visits are conducted at screening, baseline and at weeks 1, 2, 4, 6 and 8. […] Subjects who early-discontinues study drug prior to visit week 8 go to follow-up termination visit within 4 weeks (28 days) of study drug discontinuation. A loading dose regimen of the study drug is given during the first two days of treatment (day 1/baseline and thereafter). The first loading dose of the study is administered at the site. The loading dose is double the intended dose for the first two days and is administered twice daily (BID) with 12 hour interval between dosing. Thereafter, starting on day 3, the dosing regimen consists of the intended dose once daily (QD) (see Table 1): • 1. Day 1 (Baseline): loading dose of the drug (intended dose at 0 hour, at the site and intended dose at 12 hours). Total dose is twice the intended dose. • 2. Day 2: loading dose of the study drug (intended dose at 0 hour and intended dose at 12 hours). Total dose is twice the intended dose. • 3. Day 3: Intended/maintenance dose of the study drug. […] Proportion of subjects in clinical remission (total CDAI score <150) at weeks 4, 6, 8 and 12. • 2. Proportion of subjects who respond to treatment (decrease from baseline of at least 100 points in CDAI score ore remission) at week 4, 6, 8 and 12. • 3. Time to remission. • 4. Time to response. • 5. C-Reactive Protein (CRP) change from baseline at weeks 2, 4, 6, 8 and 12. • 6. Fecal calprotectin change from baseline to weeks 2, 4, 6, 8 and 12. • 7. Proportion of subjects with a decrease from baseline of at least 50% in the number of open draining fistulas. Safety/Tolerability • 1. Adverse events (AEs). • 2. Clinical laboratory values. • 3. Vital signs. • 4. ECG. • 5. Proportion of subjects who prematurely discontinue treatment. • 6. Proportion of subjects who prematurely discontinue treatment due to AEs. • 7. Time to premature treatment discontinuation. • 8. Time to premature treatment discontinuation due to AEs. Determination of the Highest Tolerable Dose

[3] = previous pharmacokinetic studies of laquinimod (time to steady state, oral bioavailability); type: in vivo; details: with loading dose regimen (double the intended dose for the first two days)
Source text: In order to decrease thee time to steady state and potentially decrease time to response, a loading dose regimen described below is used to allow steady state levels to be reached in approximately 6-7 days.

For `CCN(C(=O)c1c(O)c2c(Cl)cccc2n(C)c1=O)c1ccccc1` [laquinimod], the oral bioavailability [1] is given as “high oral bioavailability”, the dependence on steroids ([2]; 0.5 mg/day oral) is given as “lowers” and the “C-Reactive Protein level” value ([2]; 0.5 mg/day oral) is given as “lowers”. The clinical remission ([2]; 0.5 mg/day oral) was “induces and/or maintains”, the clinical response ([2]; 0.5 mg/day oral) was “induces” and the “disease progression and/or disease complication” value ([2]; 0.5 mg/day oral) was “inhibits”. For the same molecule, the fecal calprotein level ([2]; 0.5 mg/day oral) was “lowers”, the “number of open draining fistulas” value ([2]; 0.5 mg/day oral) was “reduces” and the “symptoms of Crohn's disease” value ([2]; 0.5 mg/day oral) was “reduces”. The dependence on steroids ([2]; 1.0 mg/day oral) was “lowers”, the “C-Reactive Protein level” value ([2]; 1.0 mg/day oral) was “lowers” and the clinical remission ([2]; 1.0 mg/day oral) was “induces and/or maintains”. For the same molecule, the clinical response ([2]; 1.0 mg/day oral) was “induces”, the “disease progression and/or disease complication” value ([2]; 1.0 mg/day oral) was “inhibits” and the fecal calprotein level ([2]; 1.0 mg/day oral) was “lowers”. For the same molecule, the “number of open draining fistulas” value ([2]; 1.0 mg/day oral) was “reduces”, the “symptoms of Crohn's disease” value ([2]; 1.0 mg/day oral) was “reduces” and the dependence on steroids ([2]; 1.5 mg/day oral) was “lowers”. For the same molecule, the “C-Reactive Protein level” value ([2]; 1.5 mg/day oral) was “lowers”, the clinical remission ([2]; 1.5 mg/day oral) was “induces and/or maintains” and the clinical response ([2]; 1.5 mg/day oral) was “induces”. For the same molecule, the “disease progression and/or disease complication” value ([2]; 1.5 mg/day oral) was “inhibits”, the fecal calprotein level ([2]; 1.5 mg/day oral) was “lowers” and the “number of open draining fistulas” value ([2]; 1.5 mg/day oral) was “reduces”. For the same molecule, the “symptoms of Crohn's disease” value ([2]; 1.5 mg/day oral) was “reduces”, the dependence on steroids ([2]; 2.0 mg/day oral) was “lowers” and the “C-Reactive Protein level” value ([2]; 2.0 mg/day oral) was “lowers”. The clinical remission ([2]; 2.0 mg/day oral) was “induces and/or maintains”, the clinical response ([2]; 2.0 mg/day oral) was “induces” and the “disease progression and/or disease complication” value ([2]; 2.0 mg/day oral) was “inhibits”. The fecal calprotein level ([2]; 2.0 mg/day oral) was “lowers”, the “number of open draining fistulas” value ([2]; 2.0 mg/day oral) was “reduces” and the “symptoms of Crohn's disease” value ([2]; 2.0 mg/day oral) was “reduces”. For the same molecule, the “time to reach steady state levels” value [3] was 6 to 7 days.
